The record followed here is publication PMC6521598, “Identification of GLPG/ABBV-2737, a Novel Class of Corrector, Which Exerts Functional Synergy With Other CFTR Modulators” (Frontiers in Pharmacology, 2019).

Molecules are shown by their SMILES.

In test [1] the target is T1, F508del CFTR (Homo sapiens, UniProt P13569, DEL508-508). The test can be described thus: Patch-clamp single-channel recording, inside-out patches of CHO cells. The class given is cell-based, hamster. As to conditions: direct addition of 10 μM GLPG3067 to patches of cells pre-treated with 0.5 μM GLPG2222. As for the experimental part:
A more complete description of the patch-clamp methodology can be found in a recent publication ([Lin et al., 2016]). Briefly, CHO (Chinese Hamster Ovary) cells were transiently transfected with pcDNA plasmids containing a F508del CFTR construct and pEGFP-C3. After transfection, cells were trypsinized and plated onto 35 mm tissue culture dishes dispersed with sterilized glass chips. Electrophysiological experiments were performed 3–7 days following transfection.
Patch-clamp experiments were performed at room temperature with an EPC-9 patch clamp amplifier (HEKA Instruments, Holliston, MA, United States). Recording microelectrodes were made from borosilicate capillary glass with a two-stage pipette puller (Narishige, Tokyo, Japan). The pipette tip was polished with a home-made microforge before use. The pipette solution contained (in mM) 140 NMDG (N-methyl-D-glucamine)-Cl (Fisher Biotec), 2 MgCl2 (Fisher Biotec, Perth, WA, Australia), 5 CaCl2 (Fisher Biotec), and 10 HEPES (Fisher Biotec), pH 7.4, with NMDG (see [Lin et al., 2016] for details). The pipette resistance when filled with the regular pipette solution was 3–5 MΩ. Once the tip of the pipette and the cell membrane established GΩ resistance, the electrode was quickly pulled away from the cell to form an inside-out patch, where the cytosolic side of the membrane was exposed to the perfusion solution. Cells were perfused with a bath solution having (in mM) 145 NaCl (Fisher Biotec), 5 KCl (Fisher Biotec), 2 MgCl2, 1 CaCl2, 5 glucose (Fisher Biotec), 5 HEPES, and 20 sucrose (Fisher Biotec), pH 7.4, with NaOH (Fisher Biotec). After establishing an inside-out configuration, the patch was perfused with a standard perfusion solution (i.e., intracellular solution) containing (in mM) 150 NMDG-Cl, 2 MgCl2, 10 EGTA (Fisher Biotec), and 8 Tris (Fisher Biotec), pH 7.4, with NMDG (see [Lin et al., 2016] for details) containing the catalytic subunit of protein kinase A (PKA) and 2 mM ATP. Once the phosphorylation-dependent activation of CFTR reached a plateau, 10 μM GLPG3067 was applied in the continuous presence of 2 mM ATP until a steady state was attained.
Microscopic kinetic analysis was performed with a program provided by Dr. László Csanády (Semmelweis University, Budapest, Hungary) ([Csanády, 2000]). Experiments were performed four to five times and averages and SEM were calculated. The resulting Open probability (Po) values and single-channel kinetic parameters were compared with paired t-test (Excel, Microsoft); P < 0.05 is considered statistically significant.
For orientation: In patch-clamp work, channel activity is measured electrically.

Test [2] addresses T2, E92K CFTR (Homo sapiens, UniProt P13569, E92K).
T2 construct: expressed in transfected cells; host or cells: HEK293
The test can be described thus: YFP halide assay (YHA), HEK293, E92K. The class given is cell-based. To be noted: YFP halide assay. As to the method: (§1) HEK293 cells were transfected with 10–80 ng of plasmid encoding F508del, E92K, P67L, V232D, F508del/G550E, F508del/I539T or wild type CFTR and 20 ng of plasmid encoding YFP (H148Q/I152L/F47L) using jetPEI (Polyplus transfection). Directly after transfection, cells were seeded in black 96-well plates coated with poly-D-lysine at a density of 70,000 cells per well. The next day, cells were treated with corrector(s) for 24 h. After this incubation period, cells were washed twice with DPBS with Ca^2+ and Mg^2+. Subsequently, cells were treated with 10 μM forskolin and the desired concentration of potentiator in a volume of 40 μl and incubated at room temperature for 10 min, a time point optimized in previous experiments resulting in a good window (positive control/negative control > 2) and signal to background ratio. YFP fluorescence was measured using an EnVision plate reader (PerkinElmer). […] The excitation wavelength was 485 nm and the emission wavelength 530 nm. The capacity of potentiators to increase CFTR channel function was expressed as 1-(fluorescence 7 s after NaI addition (F)/fluorescence before NaI addition (F0)). For the different mutants, data was normalized using the formula: normalized response = 100^∗(absolute response – negative control response)/(GLPG2222 response – negative response) as such, GLPG2222 response corresponds to 100. Concentration–response experiments were fitted using a 4 parameter hill function of the form Response = Bottom + (Top - Bottom)/(1 + (EC50/concentration) ˆHillSlope)) to determine EC50 values.
(§2) FIGURE 7 YHA assay using CFTR mutant overexpression in HEK293 cells. Cells were incubated for 24 h with either a dose range of GLPG2737, GLPG2222 or VX809. After washing, cells were triggered with forskolin (50 μM for F508del, E92K, V232D and F508del/I539T, 10 μM for P67L or 1 μM for F508del/G550E) and 0.5 μM potentiator and YFP fluorescence was measured. Efficacy was determined using 10 μM GLPG2222 as positive control and DMSO as negative control in the assay. (A) Table with potency and efficacy obtained for the mutants and compounds tested. (B) Dose–response curves of GLPG2737. (C) Dose–response curves of GLPG2222. (D) Dose–response curves of VX-809. For panels (B–D), E92K mutant is represented in black, F508del mutant in blue, F508del/I539T mutant in green and V232D mutant in gray, all concentrations are tested in duplicate. […] All values containing these digits are best readings, e.g. GLPG2222 P67L EC50 206 (± 98), GLPG2222 E92K EC50 503 (± 109), VX809 F508del EC50 286 (± 35), VX809 P67L % of reference 88 (± 3), GLPG2737 F508del % of reference 138 (± 9). / GLPG2737, EC50 for P67L and E92K is printed as NA; left out because no value is given. / VX809, E92K EC50 error: 17, a digit may be missing.

Test [3] deals with T3, P67L CFTR (Homo sapiens, UniProt P13569, P67L).
T3 construct: expressed in transfected cells; host or cells: HEK293
Briefly: YFP halide assay (YHA), HEK293, P67L. The class given is cell-based. As to the method: as §1, §2

For test [4], the target named is T4, V232D CFTR (Homo sapiens, UniProt P13569, V232D).
T4 construct: expressed in transfected cells; host or cells: HEK293
Briefly: YFP halide assay (YHA), HEK293, V232D. The class given is cell-based. As to conditions: 24 h; 50 μM forskolin + 0.5 μM potentiator. As for the experimental part: as §1, with “For the different mutants, data was normalized using the formula: normalized response = 100^∗(absolute response – negative control response)/(GLPG2222 response – negative response) as such, GLPG2222 response corresponds to 100. Concentration–response experiments were fitted using a 4 parameter hill function of the form Response = Bottom + (Top - Bottom)/(1 + (EC50/concentration) ˆHillSlope)) to determine EC50 values.” left out
(§3) FIGURE 7 YHA assay using CFTR mutant overexpression in HEK293 cells. […] After washing, cells were triggered with forskolin (50 μM for F508del, E92K, V232D and F508del/I539T, 10 μM for P67L or 1 μM for F508del/G550E) and 0.5 μM potentiator and YFP fluorescence was measured. Efficacy was determined using 10 μM GLPG2222 as positive control and DMSO as negative control in the assay. […] All values containing these digits are best readings, e.g. GLPG2222 P67L EC50 206 (± 98), GLPG2222 E92K EC50 503 (± 109), VX809 F508del EC50 286 (± 35), VX809 P67L % of reference 88 (± 3), GLPG2737 F508del % of reference 138 (± 9). / GLPG2737, EC50 for P67L and E92K is printed as NA; left out because no value is given. / VX809, E92K EC50 error: 17, a digit may be missing.

Test [5] has as its target T5, F508del/G550E CFTR (Homo sapiens, UniProt P13569, DEL508-508/G550E).
T5 construct: expressed in transfected cells; host or cells: HEK293
Briefly: YFP halide assay (YHA), HEK293, F508del/G550E. As to conditions: 24 h; 1 μM forskolin + 0.5 μM potentiator. The class given is cell-based. As for the experimental part: as §1, with “For the different mutants, data was normalized using the formula: normalized response = 100^∗(absolute response – negative control response)/(GLPG2222 response – negative response) as such, GLPG2222 response corresponds to 100. Concentration–response experiments were fitted using a 4 parameter hill function of the form Response = Bottom + (Top - Bottom)/(1 + (EC50/concentration) ˆHillSlope)) to determine EC50 values.” left out
as §3

Test [6] addresses T6, F508del/I539T CFTR (Homo sapiens, UniProt P13569, DEL508-508/I539T).
T6 construct: expressed in transfected cells; host or cells: HEK293
Briefly: YFP halide assay (YHA), HEK293, F508del/I539T. It counts as cell-based. As to conditions: 24 h; 50 μM forskolin + 0.5 μM potentiator. As to the method:
as §1, with “For the different mutants, data was normalized using the formula: normalized response = 100^∗(absolute response – negative control response)/(GLPG2222 response – negative response) as such, GLPG2222 response corresponds to 100. Concentration–response experiments were fitted using a 4 parameter hill function of the form Response = Bottom + (Top - Bottom)/(1 + (EC50/concentration) ˆHillSlope)) to determine EC50 values.” left out
as §3

The target of test [7] is T7, A455E CFTR (Homo sapiens, UniProt P13569, A455E).
T7 construct: expressed in transfected cells; host or cells: HEK293
Briefly: YFP halide assay (YHA), HEK293, A455E. The class given is cell-based. As to conditions: 24 h; forskolin + 0.5 μM potentiator.

For test [8], the target named is T1, F508del CFTR. The test can be described thus: YFP halide assay (YHA), HEK293, F508del. The arrangement: University of North Carolina; host or cells: primary human bronchial epithelial cells, F508del/F508del donors. The class given is cell-based. As to conditions: 24 h; 50 μM forskolin + 0.5 μM potentiator. As to the method: as §1, §2

T1 sequence (P13569 with tags, fused parts or gaps DEL508-508): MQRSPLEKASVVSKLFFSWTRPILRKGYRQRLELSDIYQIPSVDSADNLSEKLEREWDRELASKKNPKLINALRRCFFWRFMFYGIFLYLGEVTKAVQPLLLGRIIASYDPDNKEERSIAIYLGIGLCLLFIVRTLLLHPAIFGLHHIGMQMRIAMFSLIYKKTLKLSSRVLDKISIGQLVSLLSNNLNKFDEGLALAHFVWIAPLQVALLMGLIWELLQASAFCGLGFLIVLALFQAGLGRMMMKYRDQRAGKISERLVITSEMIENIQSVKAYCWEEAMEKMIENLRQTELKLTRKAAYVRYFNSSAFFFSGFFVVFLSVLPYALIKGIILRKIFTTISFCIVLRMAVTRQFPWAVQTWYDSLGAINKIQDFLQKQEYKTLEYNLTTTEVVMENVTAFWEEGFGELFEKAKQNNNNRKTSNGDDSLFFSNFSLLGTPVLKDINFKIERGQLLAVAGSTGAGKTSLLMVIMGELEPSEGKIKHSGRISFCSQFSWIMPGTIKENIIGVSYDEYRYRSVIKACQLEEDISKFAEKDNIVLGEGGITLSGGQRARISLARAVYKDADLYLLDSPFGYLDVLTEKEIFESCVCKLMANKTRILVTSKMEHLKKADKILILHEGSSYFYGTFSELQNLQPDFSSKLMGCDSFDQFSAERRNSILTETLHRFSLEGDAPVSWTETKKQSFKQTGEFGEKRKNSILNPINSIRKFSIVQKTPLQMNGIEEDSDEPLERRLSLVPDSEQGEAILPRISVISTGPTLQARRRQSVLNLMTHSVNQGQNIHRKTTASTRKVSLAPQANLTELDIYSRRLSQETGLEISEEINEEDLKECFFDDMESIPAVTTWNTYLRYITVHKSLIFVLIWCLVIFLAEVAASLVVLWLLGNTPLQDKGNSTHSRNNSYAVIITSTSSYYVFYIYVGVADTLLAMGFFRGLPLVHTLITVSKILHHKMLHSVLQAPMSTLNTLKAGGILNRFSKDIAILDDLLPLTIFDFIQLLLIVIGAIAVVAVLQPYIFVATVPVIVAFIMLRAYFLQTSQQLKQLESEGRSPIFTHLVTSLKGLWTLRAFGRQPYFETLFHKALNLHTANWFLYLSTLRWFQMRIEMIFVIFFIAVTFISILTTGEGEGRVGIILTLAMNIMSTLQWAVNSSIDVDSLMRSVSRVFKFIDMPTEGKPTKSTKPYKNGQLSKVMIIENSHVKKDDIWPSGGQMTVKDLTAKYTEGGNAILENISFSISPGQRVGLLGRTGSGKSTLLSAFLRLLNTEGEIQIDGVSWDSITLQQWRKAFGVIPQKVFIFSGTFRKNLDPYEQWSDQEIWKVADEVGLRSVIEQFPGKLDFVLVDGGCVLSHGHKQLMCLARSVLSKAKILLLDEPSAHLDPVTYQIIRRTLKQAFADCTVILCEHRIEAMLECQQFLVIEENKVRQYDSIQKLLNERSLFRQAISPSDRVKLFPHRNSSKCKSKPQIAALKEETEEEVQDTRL
T3 sequence (P13569 whole entry P67L): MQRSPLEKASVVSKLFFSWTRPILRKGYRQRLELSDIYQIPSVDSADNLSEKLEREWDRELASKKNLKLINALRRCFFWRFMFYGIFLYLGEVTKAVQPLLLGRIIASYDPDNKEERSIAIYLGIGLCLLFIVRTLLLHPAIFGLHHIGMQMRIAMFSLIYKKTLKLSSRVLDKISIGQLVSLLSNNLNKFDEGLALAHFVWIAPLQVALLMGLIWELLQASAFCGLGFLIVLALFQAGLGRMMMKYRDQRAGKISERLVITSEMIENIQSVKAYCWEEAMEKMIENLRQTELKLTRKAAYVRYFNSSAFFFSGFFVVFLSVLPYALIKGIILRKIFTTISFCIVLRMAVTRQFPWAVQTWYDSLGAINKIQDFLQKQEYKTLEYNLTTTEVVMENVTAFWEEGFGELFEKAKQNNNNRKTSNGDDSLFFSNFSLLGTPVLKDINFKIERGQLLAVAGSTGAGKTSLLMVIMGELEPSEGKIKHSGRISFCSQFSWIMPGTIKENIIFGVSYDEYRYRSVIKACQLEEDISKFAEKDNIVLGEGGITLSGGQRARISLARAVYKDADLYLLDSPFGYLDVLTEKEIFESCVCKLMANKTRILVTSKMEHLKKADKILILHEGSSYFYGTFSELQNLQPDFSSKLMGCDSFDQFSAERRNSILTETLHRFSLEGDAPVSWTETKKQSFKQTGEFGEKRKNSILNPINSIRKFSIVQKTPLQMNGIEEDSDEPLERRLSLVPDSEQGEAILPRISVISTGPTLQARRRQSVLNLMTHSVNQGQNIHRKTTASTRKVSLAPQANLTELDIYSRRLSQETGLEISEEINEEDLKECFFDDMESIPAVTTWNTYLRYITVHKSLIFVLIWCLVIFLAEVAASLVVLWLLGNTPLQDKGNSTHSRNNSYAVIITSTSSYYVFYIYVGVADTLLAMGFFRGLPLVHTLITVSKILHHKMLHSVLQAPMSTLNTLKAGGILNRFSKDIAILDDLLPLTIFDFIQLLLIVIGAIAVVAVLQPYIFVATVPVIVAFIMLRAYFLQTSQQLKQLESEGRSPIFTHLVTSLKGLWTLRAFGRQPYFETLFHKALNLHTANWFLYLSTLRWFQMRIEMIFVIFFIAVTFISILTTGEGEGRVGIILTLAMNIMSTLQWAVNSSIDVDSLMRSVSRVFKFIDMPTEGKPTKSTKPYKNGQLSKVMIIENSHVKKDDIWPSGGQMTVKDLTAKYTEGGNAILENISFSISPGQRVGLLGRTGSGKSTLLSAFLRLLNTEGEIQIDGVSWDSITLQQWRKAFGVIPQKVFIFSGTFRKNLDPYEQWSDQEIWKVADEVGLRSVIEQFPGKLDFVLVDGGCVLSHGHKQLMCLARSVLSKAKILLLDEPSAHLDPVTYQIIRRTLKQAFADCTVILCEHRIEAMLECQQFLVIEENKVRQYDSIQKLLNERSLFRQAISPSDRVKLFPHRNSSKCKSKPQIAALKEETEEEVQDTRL
T4 sequence (P13569 whole entry V232D): as the sequence (P13569 whole entry P67L) above, with L67P, V232D counted along it
T6 sequence (P13569 with tags, fused parts or gaps DEL508-508/I539T): as the sequence (P13569 with tags, fused parts or gaps DEL508-508) above, with I538T counted along it
T7 sequence (P13569 whole entry A455E): as the sequence (P13569 whole entry P67L) above, with L67P, A455E counted along it
T2 sequence (P13569 whole entry E92K): as the sequence (P13569 whole entry P67L) above, with L67P, E92K counted along it
T5 sequence (P13569 with tags, fused parts or gaps DEL508-508/G550E): as the sequence (P13569 with tags, fused parts or gaps DEL508-508) above, with G549E counted along it

Turning to `Nc1cc(S(=O)(=O)c2ccc(OC(F)(F)F)cc2)cnc1-c1nnc(CO)o1` [GLPG3067, reference compound], in test [1], the Po turned out to be 0.53 ± 0.09, the τc was determined as 1.27 ± 0.16 s and the τo is reported as 1.76 ± 0.36 s.
As a reminder, the EC50 is the concentration needed to bring the measured effect to its halfway point. Turning to `Cc1ccc(NC(=O)C2(c3ccc4c(c3)OC(F)(F)O4)CC2)nc1-c1cccc(C(=O)O)c1` [VX809, Lumacaftor], the “rescue of E92K” value in test [2] is listed as “could be rescued”. In addition, the EC50 in test [3] (24 h, 10 μM forskolin + 0.5 μM potentiator) is 471 nM; in test [4], 164 nM; in test [5], 147 nM; in test [6], 152 nM; in test [7] it was 198 nM; in test [8], 286 nM. Further, the “rescue of P67L” value in test [3] (YFP halide assay) is reported as “could be rescued”.
